Source: patent US7915284B2, “2-aryl-6-phenylimidazo[1,2-a]pyridine derivatives, preparation thereof and therapeutic use thereof” (Sanofi-Aventis, priority 2006, dated 2011)

Each compound was assayed against T1, mouse Nurr1 receptor (Mus musculus, UniProt Q06219) (assay: In vitro activity on N2A cells (NBRE-luciferase reporter)). Conditions: N2A cell line endogenously expressing mouse Nurr1, stably transfected with 8NBRE-luciferase; 24 hours incubation.
T1 construct: endogenously expressing the mouse Nurr1 receptor; host or cells: Neuro-2A (N2A) mouse neuroblastoma cells stably transfected with 8NBRE-luciferase
T1 sequence (Q06219 whole entry): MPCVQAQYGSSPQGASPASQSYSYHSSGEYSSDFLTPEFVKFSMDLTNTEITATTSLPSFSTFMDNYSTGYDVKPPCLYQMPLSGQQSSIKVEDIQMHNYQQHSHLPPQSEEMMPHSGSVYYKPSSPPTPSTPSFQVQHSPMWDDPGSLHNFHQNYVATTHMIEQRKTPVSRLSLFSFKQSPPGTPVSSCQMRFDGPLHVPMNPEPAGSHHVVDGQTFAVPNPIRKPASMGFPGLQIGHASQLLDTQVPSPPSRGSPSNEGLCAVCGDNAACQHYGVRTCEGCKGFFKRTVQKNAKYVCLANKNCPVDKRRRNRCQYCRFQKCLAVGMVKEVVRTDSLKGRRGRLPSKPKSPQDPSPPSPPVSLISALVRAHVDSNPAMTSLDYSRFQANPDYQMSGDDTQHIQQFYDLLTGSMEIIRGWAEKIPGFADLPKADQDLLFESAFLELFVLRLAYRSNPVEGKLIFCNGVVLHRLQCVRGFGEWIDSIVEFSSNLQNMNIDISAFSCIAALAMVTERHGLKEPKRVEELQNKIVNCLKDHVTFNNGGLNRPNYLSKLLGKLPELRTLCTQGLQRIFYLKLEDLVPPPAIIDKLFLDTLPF
Type: cell-based
Method: Evaluation of the In Vitro Activity on N2A Cells
Assays consisted in measuring the in vitro activity of the compounds of the invention on a cell line (N2A) endogenously expressing the mouse Nurr1 receptor and stably transfected with the NOT binding response element (NBRE) coupled to the luciferase reporter gene. The EC50 values are between 0.01 and 1000 nM. The assays were carried out according to the procedure described below.
The Neuro-2A cell line comes from a standard commercial source (ATCC). The Neuro-2A clone was obtained from a spontaneous tumour originating from an A albino mouse strain, by R. J Klebe et col. This Neuro-2A line is subsequently stably transfected with 8NBRE-luciferase. The N2A-8NBRE cells are cultured until confluence in 75 cm^2 culture flasks containing DMEM supplemented with 10% of foetal calf serum, 4.5 g/l of glucose and 0.4 mg/ml of geneticin. After a week of culture, the cells are recovered with 0.25% trypsin for 30 seconds and then resuspended in DMEM without phenol red, containing 4.5 g/l of glucose and 10% of Hyclone delipidized serum, and deposited into transparent-bottom 96-well white plates. The cells are deposited at a rate of 60 000 per well in 75 μl for 24 hours before the addition of the products. The products are applied in 25 μl and incubated for a further 24 hours. On the day of the measurement, an equivalent volume (100 μl) of Steadylite are added to each well and then left for a period of 30 minutes in order to obtain complete cell lysis and maximum signal production. The plates are subsequently measured in a luminescence counter for microplates after having been sealed with an adhesive film. The products are prepared in the form of a stock solution at 10^−2M and then diluted in 100% of DMSO. Each product concentration is prediluted in culture medium before incubation with the cells, thus containing 0.625% final concentration of DMSO.

Row | EC50 [nM] | SMILES
1 | 0.7 | CC(C)(O)c1cccc(-c2ccc3nc(-c4ccc(Cl)cc4)cn3c2)c1 [Compound 39, 2-{3-[2-(4-Chlorophenyl)imidazo[1,2-a]pyridin-6-yl]phenyl}propan-2-ol]
2 | 3.6 | COCCOCc1cccc(-c2ccc3nc(-c4ccc5ccccc5c4)cn3c2)c1 [Compound 17, 6-[3-(2-Methoxyethoxymethyl)phenyl]-2-(naphthalen-2-yl)imidazo[1,2-a]pyridine]
3 | 14 | Cc1ccc(-c2cn3cc(-c4cccc(COc5ccc(Cl)cc5)c4)ccc3n2)cc1 [Compound 31, 6-[3-(4-Chlorophenoxymethyl)phenyl]-2-p-tolylimidazo[1,2-a]pyridine]
4 | 0.7 | OCc1ccccc1-c1ccc2nc(-c3ccc(Cl)cc3)cn2c1 [Compound 40, {2-[2-(4-Chlorophenyl)imidazo[1,2-a]pyridin-6-yl]phenyl}methanol]
